Some results are limits rather than exact numbers.

One may read the melting point as the temperature, or range, at which the solid turns liquid.

One series concerns the target T1, hP2X7 (Homo sapiens, UniProt Q99572).
T1 construct: expressed in transfected cells; host or cells: 1321N1 astrocytoma cells
T1 sequence (Q99572 1-595): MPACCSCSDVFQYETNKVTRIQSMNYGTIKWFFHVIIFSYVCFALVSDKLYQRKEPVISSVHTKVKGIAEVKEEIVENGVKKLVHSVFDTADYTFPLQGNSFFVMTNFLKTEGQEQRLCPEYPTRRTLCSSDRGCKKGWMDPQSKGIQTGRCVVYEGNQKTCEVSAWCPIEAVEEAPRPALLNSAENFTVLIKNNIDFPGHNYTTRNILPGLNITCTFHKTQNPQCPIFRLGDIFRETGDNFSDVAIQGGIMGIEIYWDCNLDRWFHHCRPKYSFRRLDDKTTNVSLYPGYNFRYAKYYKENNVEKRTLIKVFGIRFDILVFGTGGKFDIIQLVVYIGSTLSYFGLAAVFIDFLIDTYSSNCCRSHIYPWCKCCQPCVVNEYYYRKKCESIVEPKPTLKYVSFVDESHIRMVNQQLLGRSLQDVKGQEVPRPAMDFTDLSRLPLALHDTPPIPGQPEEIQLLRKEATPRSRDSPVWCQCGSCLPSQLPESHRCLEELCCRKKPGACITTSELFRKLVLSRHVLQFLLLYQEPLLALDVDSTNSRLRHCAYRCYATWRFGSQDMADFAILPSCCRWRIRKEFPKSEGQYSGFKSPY
Nature of the series: P2X7 antagonism: ligand-induced Ca2+ flux in 1321N1 astrocytoma cells overexpressing hP2X7. In kind it is cell-based. As to conditions: pIC50 = -log(IC50), read-out: hP2RX7pIC50 (mean pIC50 values) (converted). Summed up:
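Intracellular Ca2+ tracked with a quenched Ca2+-sensitive fluorescent dye kit (excitation 488 nm, emission 510-560 nm) in 1321N1 cells, before and after agonist addition in presence of antagonist. Effects expressed as % control and IC50.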

A further series has as its target T2, P2X7 (Homo sapiens, UniProt Q99572).
T2 construct: endogenous in cells; host or cells: THP-1 human monocytic cell line
T2 sequence (Q99572 1-595): T1 sequence (Q99572 1-595)
Nature of the series: THP-1 YoPro uptake assay (BzATP-stimulated Yo-Pro-1 uptake). In kind it is cell-based. As to conditions: Table F-10, THP-1 cells, read-out: mean pIC50 values for P2X7 antagonism (converted).

`O=C(NCC(c1cnc(C(F)(F)F)nc1)N1CCOCC1)c1cccc2nc(N3CCNCC3)ccc12` (stereo not shown) [Compound 102] yielded a melting point of 234.3 °C. In addition, on hP2X7, the IC50 was 0.0724 µM.

On to `O=C(NCC(c1cnc(C(F)(F)F)nc1)N1CCC(F)(F)CC1)c1cccc2ncccc12` (single isomer, unassigned) [Compound 46], for which the melting point is 217.7 °C. On hP2X7, the IC50 is 0.0275 µM.

`Cc1ncc(C(CNC(=O)c2cccc3nc(N4CCOCC4)ccc23)N2CCC(F)(F)CC2)cn1` (stereo not shown) [Compound 96]: the melting point came out at 160 °C. Moreover, at hP2X7, the IC50 was 0.0479 µM.

On to `CC1CN(c2ccc3c(C(=O)NCC(c4cnc(C(F)(F)F)nc4)N4CCC(F)(F)CC4)cccc3n2)CC(C)O1` (stereo not shown) [Compound 140], for which the melting point was determined as 191.5 °C. For the same compound, the IC50 on hP2X7 was 0.0912 µM.

For the compound `O=C(NCC(c1cnc(C(F)(F)F)nc1)N1CCC(F)(F)CC1)c1cccc2nc(N3CCNCC3)ccc12` (stereo not shown) [Compound 78], the melting point was 202.9 °C. Moreover, the IC50 at hP2X7 is 0.0257 µM.

The compound `CC(C)(C)OC(=O)N1CCN(c2ccc3c(C(=O)NCC(c4cnc(C(F)(F)F)nc4)N4CCCC(F)(F)C4)cccc3n2)CC1` (stereo not shown) [Compound 106] had a melting point of 159.7 °C. Further, on hP2X7, the IC50 was 0.138 µM.

With `CC(C)N1CCN(c2ccc3c(C(=O)NCC(c4cnc(C(F)(F)F)nc4)N4CCC(F)(F)CC4)cccc3n2)CC1` (stereo not shown) [Compound 134], the melting point worked out at 236.3 °C.

Turning to `O=C(NCC(c1ccc(C(F)(F)F)nc1)N1CCC(O)(c2ccc(Cl)cc2)CC1)c1cccc2ncccc12` (stereo not shown) [Compound 29], the melting point lay in the range of 155 to 162.2 °C. Moreover, the IC50 at hP2X7 was > 10 µM.

`O=C(NCC(c1ccc(Cl)nc1)N1CCC(F)(F)CC1)c1cccc2ncccc12` (stereo not shown) [Compound 7] returned a melting point of 187.3 °C. In addition, at hP2X7, the IC50 is 0.0251 µM.

Consider `NC(=O)C1CCN(C(CNC(=O)c2cccc3ncccc23)c2ccc(C(F)(F)F)nc2)CC1` (stereo not shown) [Compound 34], for which the melting point is 253.7 to 254.3 °C. The IC50 at hP2X7 was > 10 µM.

Turning to `O=C(NCC(c1cnc(C(F)(F)F)nc1)N1CCC(F)(F)CC1)c1cccc2nc(O)ccc12` (stereo not shown) [Compound 77], the melting point was 206.9 °C. At hP2X7, the IC50 is 0.224 µM.

`O=C(NCC(c1cnc(C(F)(F)F)nc1)N1CCC(F)(F)CC1)c1cccc2nc(NCCO)ccc12` (stereo not shown) [Compound 39] returned a melting point of 125.3 °C. The IC50 at hP2X7 was 0.0339 µM.

`O=C(NCC(c1cnc(C(F)(F)F)nc1)N1CCCCC1)c1cccc2ncccc12` (stereo not shown) [Compound 35]: the melting point was determined as 183.6 °C. Moreover, on hP2X7, the IC50 was 0.0214 µM.

Turning to `CS(=O)(=O)N[C@@H]1CCN(c2ccc3c(C(=O)NCC(c4cnc(C(F)(F)F)nc4)N4CCOCC4)c(Cl)ccc3n2)C1` (stereo partly shown) [Compound 552], the IC50 on P2X7 is 0.0178 µM.

Take `O=C(NCC(c1cnc(C(F)(F)F)nc1)N1CCOCC1)c1c(Cl)ccc2nc(N3CC(O)C3)ccc12` (stereo not shown) [Compound 458]: on P2X7, the IC50 was 0.00302 µM.

`O=C(NCC(c1cnc(C(F)(F)F)nc1)N1CCCCC1)c1c(Cl)ccc2nc(N3CCC(O)CC3)ccc12` (stereo not shown) [Compound 546]: the IC50 on P2X7 is 0.00479 µM.

Regarding `O=C(NCC(c1cnc(C(F)(F)F)nc1)N1CCOCC1)c1c(Cl)ccc2nc(NCCN3CCOCC3)ccc12` (stereo not shown) [Compound 439], the IC50 at P2X7 was 0.0407 µM.

Regarding `CC(=O)N1C[C@H]2CC[C@@H]1N(c1ccc3c(C(=O)NCC(c4cnc(C(F)(F)F)nc4)N4CCOCC4)c(Cl)ccc3n1)C2` (stereo partly shown) [Compound 443], the IC50 at P2X7 was 0.282 µM.

On to `O=C(NCC(c1cnc(C(F)(F)F)nc1)N1CCOCC1)c1c(F)ccc2ncccc12` (stereo not shown) [Compound 609], for which the IC50 at P2X7 was 0.0331 µM.

As to `C[C@@H]1CN(c2ccc3c(C(=O)NCC(c4cnc(C(F)(F)F)nc4)N4CCOCC4)c(Cl)ccc3n2)C[C@H](C)O1` (stereo partly shown) [Compound 503], the IC50 at P2X7 is 0.0372 µM.

`O=C(NCC(c1cnc(C(F)(F)F)nc1)N1CCOCC1)c1c(Cl)ccc2nc(N3CCC(O)CC3)ccc12` (stereo not shown) [Compound 452]: the IC50 on P2X7 is 0.0195 µM.

As to `O=C(NCC(c1ccc(C(F)(F)F)nc1)N1CCNCC1)c1cccc2ncccc12` (stereo not shown) [Compound 8], the melting point worked out at 198 °C. Moreover, the IC50 on hP2X7 was > 10 µM.

Consider `O=C(NCC(c1cnc(C(F)(F)F)nc1)N1CCOCC1)c1c(Cl)ccc2nc(NCC3CC3)ccc12` (stereo not shown) [Compound 497], for which the IC50 at P2X7 is 0.00617 µM.

Consider `O=C(NCC(c1cnc(C(F)(F)F)nc1)N1CCC(F)(F)CC1)c1c(Cl)ccc2nc(N3CCC4(CCCN4)C3)ccc12` (stereo not shown) [Compound 531], for which the IC50 on P2X7 is 0.00302 µM.

For the origin of these results see patent US8431704B2, “Quinoline or isoquinoline substituted P2X7 antagonists” (Janssen Pharmaceutica NV, priority 2008, dated 2013).
